“Also recorded” adds a separate entry of the source.
Key:
[1] = test system: platelets; assay: platelet aggregation (aggregometer, thrombin or ADP); type: cell-based; settings: background statement
Description: Platelets were isolated from platelet-rich plasma (purchased from the Oregon Red Cross, Portland, Oreg.). Contaminating erythrocytes were removed by centrifugation (80×g for 10 minutes). Platelets were obtained by centrifugation (300×g for 10 minutes), washed once in Tyrode buffer (pH 6.5) containing 22 mM trisodium citrate and 0.35% (w/v) BSA and resuspended in the same buffer to obtain a concentration of 1-2×10^9 platelets/ml. All procedures were performed at room temperature.
A suspension of platelets (about 3.5×10^8 /ml) in Tyrode buffer was preincubated with inhibitor compounds (H-7 [1-(5-isoquinolinylsulfonyl)-2-methylpiperazine, a synthetic protein kinase-C inhibitor purchased from Seikagaku America Inc., St. Petersburg, Fla.], Calphostin-C [a synthetic protein kinase-C inhibitor obtained from Dr. Saitoh, Kyowa Hakko Co., Ltd., Machida, Tokyo, Japan], sphingosine [purchased from Sigma, St. Louis, Mo.] and dimethylsphingosine and trimethylsphingosine [synthesized according to Igarashi et al., Biochem., 28, 6796, 1989]) followed by addition of thrombin or ADP (both purchased from Sigma). Platelet aggregation was evaluated by transmittance change using an aggregometer (Chrono-log Corp., Havertown, Pa.) equipped with a computer analyzer.

[2] = test system: GMP-140; assay: GMP-140 expression in platelets (flow cytometry with mAb AC1.2); type: cell-based; settings: platelets preincubated with compound; thrombin or PMA activation
Description: GMP-140 expression was determined by (i) flow cytometry with mAb AC1.2, which is directed to GMP-140 and obtained from Dr. Furie (Tufts Univ. Sch. Med., Boston, Mass.) and (ii) adhesion of HL60 cells on platelet-coated solid phase.
A suspension of platelets (1×10^8 /ml) in Tyrode buffer was preincubated with inhibitor at pH 7.2, 37° C., for 5 minutes, then supplemented with activator, either thrombin (final concentration 1 U/ml) or phorbol 12-myristate 13-acetate (PMA) (final concentration 10^-7 M), and then the mixture was incubated at 37° C. for 10 minutes. Platelets were fixed with an equal volume of 2% (w/v) paraformaldehyde in PBS and washed 2 times with PBS containing 1% (w/v) BSA.
The paraformaldehyde-fixed platelets were incubated with 50 μl of mAb AC1.2 (2.5 μg/ml) at room temperature for 30 minutes. […]
The platelets were analyzed in an Epics flow cytometer (Coulter Corp.) with suitable gating. To calculate the inhibitory effect of various reagents, the mean fluorescence intensity of resting platelets (obtained on incubation of platelets without activator) was subtracted from the value for the activated platelet sample.

[3] = test system: neutrophils; assay: superoxide production in neutrophils (reduction of cytochrome C); type: cell-based, human
Description: Human neutrophils were obtained from normal male adults. Heparinized peripheral blood was mixed gently with an equal amount of 1% dextran solution in PBS in a 60 ml injection syringe. The mixture was allowed to sit vertically for 60 to 90 minutes at 37° C. The upper phase, which is rich in white blood cells, was mounted gently on the same volume of Ficoll-Paque (Pharmacia LKB, Uppsala, Sweden) in Falcon 2095 plastic test tubes (Becton Dickinson Labware, Lincoln Park, N.J.). Centrifugation at 450g for 30 min at 4° C. brought the neutrophils to the bottom of the tubes. The upper phase and interface, which contains lymphocytes, were removed carefully by aspiration.
Contaminating erythrocytes were removed from the cell pellet by hypotonic lysis by resuspending the cell pellet in ice-cold distilled water for 30 sec then adding an equal volume of ice-cold 1.8% NaCl solution. After centrifugation at 80g for 10 min, the cells were resuspended with a suitable buffer or media.
The final preparation consisted of more than 98% neutrophils, as determined by Wright-Giemsa staining. The suspension was stored at 4° C. and used within 3 hr.

Structure (SMILES): CCCCCCCCCCCCC/C=C/C(O)C(CO)[N+](C)(C)C (stereo not drawn) [TMS, N,N,N-trimethylsphingosine]
- Platelet aggregation and associated ATP secretion [1]: inhibited strongly
- GMP-140 expression [2]: down-regulated or blocked; also recorded: inhibits GMP-140 expression
- Superoxide production in neutrophils [3]: inhibited by TMS in a dose-dependent manner

Source: US6031135A, “Trimethylsphingosine derivatives” (Oncomembrane, Inc., priority 1996, dated 2000)
